What was measured:
Recombinant Btk = Recombinant Btk (Homo sapiens, UniProt Q06187); assay: Btk Kinase Assay (TR-FRET)
[1] = target: T1, phosphorylated Btk at Tyr223 in Ramos cells (Homo sapiens, UniProt Q06187); assay: Btk pY223 Cellular Assay (HTRF, Ramos cells); assay type: cell-based; details: 1 hour compound incubation, stimulated with pervanadate or Na3VO4, read-out: 1050 (nM) Btk pY223
T1 construct: determine the endogenous levels of phosphorylated Btk at Tyr223; endogenous in cells; host or cells: Ramos cells (CRL-1596, ATCC)
Experimental: Btk pY223 cellular assay is a HTRF based assay intended to determine the endogenous levels of phosphorylated Btk at Tyr223. Phosphorylated Tyr223 is necessary for full activation of Btk.
Briefly, Ramos cells were serum starved in 0.5% FBS-containing RPMI1640 for 2 hours. Following starvation, the cells were incubated with compounds to be detected at various concentrations in a CO2 incubator for 1 hour. After incubation, cells were stimulated with 1 mM pervanadate (PV) or Na3VO4 (OV) for 20 min. Then, the cells were spinned down and lysed with 1× lysis buffer at RT for 10 min (4× lysis buffer supplied in the kit). During the incubation, 1× antibody mix was prepared by diluting anti-Btk-d2 and anti-pBtk-K in detection buffer (supplied in the kit). […] After that, 18 ul of cell lysate was transferred to the assay plate pre-loaded with antibody solution. After mixing gently and spinning briefly, the plate was sealed up and kept in dark at RT for 18 hours. The fluorescence emission was measured at two different wavelengths (665 nm and 620 nm) on a compatible HTRF reader (PHERAstar FS, BMG).

T1 sequence (Q06187 whole entry): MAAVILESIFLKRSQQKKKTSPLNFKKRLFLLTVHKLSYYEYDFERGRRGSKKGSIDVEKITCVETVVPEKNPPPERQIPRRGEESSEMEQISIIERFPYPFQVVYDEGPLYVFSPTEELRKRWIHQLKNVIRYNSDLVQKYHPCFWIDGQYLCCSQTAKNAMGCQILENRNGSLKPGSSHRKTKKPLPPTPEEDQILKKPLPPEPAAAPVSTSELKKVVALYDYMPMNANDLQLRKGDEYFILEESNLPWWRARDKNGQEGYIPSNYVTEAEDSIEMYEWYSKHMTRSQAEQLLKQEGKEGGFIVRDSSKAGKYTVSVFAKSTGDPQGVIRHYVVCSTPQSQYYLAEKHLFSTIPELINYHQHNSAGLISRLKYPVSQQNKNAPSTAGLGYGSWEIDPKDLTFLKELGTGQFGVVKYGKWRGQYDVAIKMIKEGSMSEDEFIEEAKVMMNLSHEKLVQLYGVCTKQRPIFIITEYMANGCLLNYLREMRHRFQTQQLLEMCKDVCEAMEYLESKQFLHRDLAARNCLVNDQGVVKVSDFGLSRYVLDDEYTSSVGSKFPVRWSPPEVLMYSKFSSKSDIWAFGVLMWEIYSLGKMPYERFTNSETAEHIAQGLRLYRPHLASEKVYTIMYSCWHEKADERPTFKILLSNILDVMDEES
Chain of Recombinant Btk (Q06187 whole entry): as above

| IC50 (Recombinant Btk) | IC50 [1] | SMILES |
| --- | --- | --- |
| 7.6 nM | – | N#C/C=C/CN1CCCC(n2nc(-c3ccc(Oc4ccccc4)cc3)c(C(N)=O)c2N)C1 (stereo not shown) [Compound I-11, (E)-5-Amino-1-(1-(3-cyanoallyl)piperidin-3-yl)-3-(4-phenoxyphenyl)-1H-pyrazole-4-carboxamide] |
| 25 nM | – | C=CC(=O)N1CCc2c(c(N)c(C(N)=O)n2-c2ccc(OCc3ccccc3)cc2)C1 [II-4, 5-Acryloyl-3-amino-1-(4-(benzyloxy)phenyl)-4,5,6,7-tetrahydro-1H-pyrrolo[3,2-c]pyridine-2-carboxamide] |
| 480 nM | – | C=CC(=O)NCCN1CCc2c(c(N)c(C(N)=O)n2-c2ccc(Oc3ccccc3)cc2)C1 [II-3, 5-(2-Acrylamidoethyl)-3-amino-1-(4-phenoxyphenyl)-4,5,6,7-tetrahydro-1H-pyrrolo[3,2-c]pyridine-2-carboxamide] |
| 18 nM | – | CN(C)C(=O)/C=C/CN1CCCC(n2nc(-c3ccc(Oc4ccccc4)cc3)c(C(N)=O)c2N)C1 (stereo not shown) [Compound I-10, (E)-5-Amino-1-(1-(4-(dimethylamino)-4-oxobut-2-enyl)piperidin-3-yl)-3-(4-phenoxyphenyl)-1H-pyrazole-4-carboxamide] |
| 3200 nM | – | C=CC(=O)N1CCC(N2CCc3c(c(N)c(C(N)=O)n3-c3ccc(Oc4ccccc4)cc3)C2)C1 (stereo not shown) [II-2, 5-(1-Acryloylpyrrolidin-3-yl)-3-amino-1-(4-phenoxyphenyl)-4,5,6,7-tetrahydro-1H-pyrrolo[3,2-c]pyridine-2-carboxamide] |
| 14 nM | – | CN1CC=C(C(=O)N2CCCC(n3nc(-c4ccc(Oc5ccccc5)cc4)c(C(N)=O)c3N)C2)CC1 (stereo not shown) [Compound I-7, 5-Amino-1-(1-(1-methyl-1,2,3,6-tetrahydropyridine-4-carbonyl)piperidin-3-yl)-3-(4-phenoxyphenyl)-1H-pyrazole-4-carboxamide] |
| 0.56 nM | 3.6 nM | CN(C)C/C=C/C(=O)N1CCCC(n2nc(-c3ccc(Oc4ccccc4)cc3)c(C(N)=O)c2N)C1 (stereo not shown) [Compound I-4, (E)-5-Amino-1-(1-(4-(dimethylamino)but-2-enoyl)piperidin-3-yl)-3-(4-phenoxyphenyl)-1H-pyrazole-4-carboxamide] |
| 0.92 nM | – | C=CC(=O)N1CCC[C@@H](n2nc(-c3ccc(OCC4CC4)cc3)c(C(N)=O)c2N)C1 [Compound I-17, (R)-1-(1-Acryloylpiperidin-3-yl)-5-amino-3-(4-(cyclopropylmethoxy)phenyl)-1H-pyrazole-4-carboxamide] |
| 2.7 nM | – | C=CC(=O)N1CCCC(c2cn(-c3ccc(Oc4ccccc4)cc3)c(C(N)=O)c2N)C1 (stereo not shown) [II-10, 4-(1-Acryloylpiperidin-3-yl)-3-amino-1-(4-phenoxyphenyl)-1H-pyrrole-2-carboxamide] |
| 0.18 nM | – | C=CC(=O)N1CCC[C@@H](n2nc(-c3ccc(Cl)c(OC)c3)c(C(N)=O)c2N)C1 [Compound I-21, (R)-1-(1-Acryloylpiperidin-3-yl)-5-amino-3-(4-chloro-3-methoxyphenyl)-1H-pyrazole-4-carboxamide] |
| 3.3 nM | 16.6 nM | C=CC(=O)N1CCc2c(c(N)c(C(N)=O)n2-c2ccc(Oc3ccccc3)cc2)C1 [II-1, 5-Acryloyl-3-amino-1-(4-phenoxyphenyl)-4,5,6,7-tetrahydro-1H-pyrrolo[3,2-c]pyridine-2-carboxamide] |
| 22 nM | – | N#CCC(=O)N1CCCC(n2nc(-c3ccc(Oc4ccccc4)cc3)c(C(N)=O)c2N)C1 (stereo not shown) [Compound I-9, 5-Amino-1-(1-(2-cyanoacetyl)piperidin-3-yl)-3-(4-phenoxyphenyl)-1H-pyrazole-4-carboxamide] |
| 0.54 nM | 3.3 nM | C=CC(=O)N1CCC[C@@H](n2nc(-c3ccc(Cl)cc3)c(C(N)=O)c2N)C1 [Compound I-14, (R)-1-(1-Acryloylpiperidin-3-yl)-5-amino-3-(4-chlorophenyl)-1H-pyrazole-4-carboxamide] |
| 34 nM | – | C=CC(=O)N1Cc2c(N)c(C(N)=O)n(-c3ccc(Oc4ccc(C(C)(C)C)cc4)cc3)c2C1 [II-6, 5-Acryloyl-3-amino-1-(4-(4-(tert-butyl)phenoxy)phenyl)-1,4,5,6-tetrahydropyrrolo[3,4-b]pyrrole-2-carboxamide] |
| 2.5 nM | 42.6 nM | CC=CC(=O)N1CCCC(n2nc(-c3ccc(Oc4ccccc4)cc3)c(C(N)=O)c2N)C1 (stereo not shown) [Compound I-5, 5-Amino-1-(1-(but-2-enoyl)piperidin-3-yl)-3-(4-phenoxyphenyl)-1H-pyrazole-4-carboxamide] |
| 18 nM | – | N#C/C=C\CN1CCCC(n2nc(-c3ccc(Oc4ccccc4)cc3)c(C(N)=O)c2N)C1 (stereo not shown) [Compound I-12, (Z)-5-Amino-1-(1-(3-cyanoallyl)piperidin-3-yl)-3-(4-phenoxyphenyl)-1H-pyrazole-4-carboxamide] |
| 9.4 nM | 55.6 nM | C=CC(=O)Nc1ccc2c(c1)c(N)c(C(N)=O)n2-c1ccc(Oc2ccccc2)cc1 [II-7, 5-Acrylamido-3-amino-1-(4-phenoxyphenyl)-1H-indole-2-carboxamide] |
| 0.21 nM | 7.5 nM | C#CC(=O)N1CCCC(n2nc(-c3ccc(Oc4ccccc4)cc3)c(C(N)=O)c2N)C1 (stereo not shown) [Compound I-13, 5-Amino-3-(4-phenoxyphenyl)-1-(1-propioloylpiperidin-3-yl)-1H-pyrazole-4-carboxamide] |
| 0.15 nM | – | C=CC(=O)N1CC2(CC(n3nc(-c4ccc(Oc5ccccc5)cc4)c(C(N)=O)c3N)C2)C1 [Compound I-19, 1-(2-Acryloyl-2-azaspiro[3.3]heptan-6-yl)-5-amino-3-(4-phenoxyphenyl)-1H-pyrazole-4-carboxamide] |
| 0.24 nM | 0.3 nM | C=CC(=O)N1CCC[C@@H](n2nc(-c3ccc(C)c(OC)c3)c(C(N)=O)c2N)C1 [Compound I-15, (R)-1-(1-Acryloylpiperidin-3-yl)-5-amino-3-(3-methoxy-4-methylphenyl)-1H-pyrazole-4-carboxamide] |
| 210 nM | – | C=CC(=O)Nc1ccc2c(N)c(C(N)=O)n(-c3ccc(Oc4ccccc4)cc3)c2c1 [II-8, 6-Acrylamido-3-amino-1-(4-phenoxyphenyl)-1H-indole-2-carboxamide] |
| 9 nM | – | C=CC(=O)N1Cc2c(N)c(C(N)=O)n(-c3ccc(Oc4ccccc4)cc3)c2C1 [II-5, 5-Acryloyl-3-amino-1-(4-phenoxyphenyl)-1,4,5,6-tetrahydropyrrolo[3,4-b]pyrrole-2-carboxamide] |
| 0.23 nM | – | C=CS(=O)(=O)N1CCCC(n2nc(-c3ccc(Oc4ccccc4)cc3)c(C(N)=O)c2N)C1 (stereo not shown) [Compound I-8, 5-Amino-3-(4-phenoxyphenyl)-1-(1-(vinylsulfonyl)piperidin-3-yl)-1H-pyrazole-4-carboxamide] |
| 7600 nM | – | NC(=O)c1c(N)c(C2CCNCC2)cn1-c1ccc(Oc2ccccc2)cc1 [II-9, 3-Amino-1-(4-phenoxyphenyl)-4-(piperidin-4-yl)-1H-pyrrole-2-carboxamide] |
| 2.4 nM | – | C=CC(=O)N1CCC[C@@H](n2nc(-c3ccc(OC(C)C)cc3)c(C(N)=O)c2N)C1 [Compound I-18, (R)-1-(1-Acryloylpiperidin-3-yl)-5-amino-3-(4-isopropoxyphenyl)-1H-pyrazole-4-carboxamide] |
| 1.4 nM | 17.7 nM | C=CC(=O)N1CCC[C@@H](n2nc(-c3ccc(OC)cc3)c(C(N)=O)c2N)C1 [Compound I-16, (R)-1-(1-Acryloylpiperidin-3-yl)-5-amino-3-(4-methoxyphenyl)-1H-pyrazole-4-carboxamide] |
| 0.22 nM | 10.4 nM | NC(=O)c1c(-c2ccc(Oc3ccccc3)cc2)nn(C2CCCN(C(=O)CCl)C2)c1N (stereo not shown) [Compound I-6, 5-Amino-1-(1-(2-chloroacetyl)piperidin-3-yl)-3-(4-phenoxyphenyl)-1H-pyrazole-4-carboxamide] |

| SMILES | IC50 (Recombinant Btk) | IC50 [1] |
| --- | --- | --- |
| C=CC(=O)N1CCC[C@@H](n2nc(-c3ccc(OCC(C)C)cc3)c(C(N)=O)c2N)C1 [Compound I-20, (R)-1-(1-Acryloylpiperidin-3-yl)-5-amino-3-(4-isobutoxyphenyl)-1H-pyrazole-4-carboxamide] | 0.49 nM | – |
